Data published in the NIST ThermoML archive (doi:10.1016/j.jct.2005.11.012).

Tests used:
[1] = xn = mol fraction of the nth substance listed; settings: 101 kPa, Liquid
[2] = refractive index (Na D-line) (dimensionless); xn = mol fraction of the nth substance listed; settings: 101 kPa, Liquid
[3] = 101 kPa, Liquid
[4] = refractive index (Na D-line) (dimensionless); settings: 101.33 kPa, Liquid

BrC(Br)C(Br)Br [1,1,2,2-tetrabromoethane] + CCCCCCO
Settings | mass density, [1] [kg/m3] | refractive index, [2]
293.15 K, x1 = 0.1001 | 1021.6 | 1.43743
293.15 K, x1 = 0.2007 | 1227.75 | 1.45713
293.15 K, x1 = 0.3004 | 1434.26 | 1.4771
293.15 K, x1 = 0.4004 | 1643.89 | 1.49787
293.15 K, x1 = 0.5005 | 1856.54 | 1.51914
293.15 K, x1 = 0.6008 | 2072.22 | 1.54101
293.15 K, x1 = 0.6999 | 2288.24 | 1.56327
293.15 K, x1 = 0.8012 | 2512.37 | 1.58693
293.15 K, x1 = 0.9001 | 2734.51 | 1.61052
293.15 K, x1 = 1 | 2963.2 | 1.63535
303.15 K, x1 = 0.1001 | 1012.63 | 1.43304
303.15 K, x1 = 0.2007 | 1216.94 | 1.45244
303.15 K, x1 = 0.3004 | 1421.62 | 1.47214
303.15 K, x1 = 0.4004 | 1629.48 | 1.49244
303.15 K, x1 = 0.5005 | 1840.42 | 1.51355
303.15 K, x1 = 0.6008 | 2054.51 | 1.53523
303.15 K, x1 = 0.6999 | 2269.06 | 1.55749
303.15 K, x1 = 0.8012 | 2491.76 | 1.58095
303.15 K, x1 = 0.9001 | 2712.53 | 1.60452
303.15 K, x1 = 1 | 2939.86 | 1.62926

BrC(Br)C(Br)Br [1,1,2,2-tetrabromoethane]
Settings | mass density, [3] [kg/m3] | refractive index, [4]
293.15 K | 2963.2 | 1.63535
303.15 K | 2939.86 | 1.62926

BrC(Br)C(Br)Br [1,1,2,2-tetrabromoethane] + CCCCCCCCO
Settings | mass density, [1] [kg/m3] | refractive index, [2]
293.15 K, x1 = 0.101 | 989.26 | 1.44433
293.15 K, x1 = 0.2013 | 1161.15 | 1.45995
293.15 K, x1 = 0.2997 | 1338.99 | 1.47641
293.15 K, x1 = 0.3994 | 1529.17 | 1.49411
293.15 K, x1 = 0.5002 | 1732.98 | 1.51358
293.15 K, x1 = 0.6003 | 1947.95 | 1.53421
293.15 K, x1 = 0.6998 | 2175.4 | 1.55634
293.15 K, x1 = 0.7998 | 2419.28 | 1.58047
293.15 K, x1 = 0.9011 | 2684.42 | 1.60696
293.15 K, x1 = 1 | 2963.2 | 1.63535
303.15 K, x1 = 0.101 | 980.93 | 1.44015
303.15 K, x1 = 0.2013 | 1151.32 | 1.45566
303.15 K, x1 = 0.2997 | 1327.63 | 1.4717
303.15 K, x1 = 0.3994 | 1516.19 | 1.48929
303.15 K, x1 = 0.5002 | 1718.29 | 1.50826
303.15 K, x1 = 0.6003 | 1931.52 | 1.52869
303.15 K, x1 = 0.6998 | 2157.22 | 1.55075
303.15 K, x1 = 0.7998 | 2399.36 | 1.57464
303.15 K, x1 = 0.9011 | 2662.77 | 1.60101
303.15 K, x1 = 1 | 2939.86 | 1.62926

BrC(Br)C(Br)Br [1,1,2,2-tetrabromoethane] + CCCCCCCCCCO
Settings | mass density, [1] [kg/m3] | refractive index, [2]
293.15 K, x1 = 0.1023 | 968.19 | 1.44929
293.15 K, x1 = 0.202 | 1114.37 | 1.46226
293.15 K, x1 = 0.3012 | 1272.36 | 1.47639
293.15 K, x1 = 0.4012 | 1446.62 | 1.49207
293.15 K, x1 = 0.5007 | 1636.66 | 1.50944
293.15 K, x1 = 0.6006 | 1847.04 | 1.52888
293.15 K, x1 = 0.7011 | 2081.74 | 1.55057
293.15 K, x1 = 0.8006 | 2340.68 | 1.57518
293.15 K, x1 = 0.9006 | 2632.79 | 1.60321
293.15 K, x1 = 1 | 2963.2 | 1.63535
303.15 K, x1 = 0.1023 | 960.09 | 1.44494
303.15 K, x1 = 0.202 | 1104.97 | 1.45758
303.15 K, x1 = 0.3012 | 1261.57 | 1.47147
303.15 K, x1 = 0.4012 | 1434.34 | 1.48697
303.15 K, x1 = 0.5007 | 1622.78 | 1.50399
303.15 K, x1 = 0.6006 | 1831.45 | 1.52315
303.15 K, x1 = 0.7011 | 2064.32 | 1.54493
303.15 K, x1 = 0.8006 | 2321.36 | 1.56925
303.15 K, x1 = 0.9006 | 2611.47 | 1.59716
303.15 K, x1 = 1 | 2939.86 | 1.62926

CCCCCCCO [heptan-1-ol] + BrC(Br)C(Br)Br
x2 = 0
Settings | mass density, [1] [kg/m3] | refractive index, [2]
293.15 K | 822.39 | 1.42397
303.15 K | 815.41 | 1.42002

BrC(Br)C(Br)Br [1,1,2,2-tetrabromoethane] + CCCCCCCO
Settings | mass density, [1] [kg/m3] | refractive index, [2]
293.15 K, x1 = 0.099 | 1001.11 | 1.44056
293.15 K, x1 = 0.1999 | 1189.38 | 1.45821
293.15 K, x1 = 0.3001 | 1383.2 | 1.47658
293.15 K, x1 = 0.3995 | 1582.25 | 1.49566
293.15 K, x1 = 0.5006 | 1792.24 | 1.51595
293.15 K, x1 = 0.5987 | 2003.6 | 1.5368
293.15 K, x1 = 0.6993 | 2229.07 | 1.55935
293.15 K, x1 = 0.799 | 2461.79 | 1.58311
293.15 K, x1 = 0.8992 | 2706 | 1.60832
293.15 K, x1 = 1 | 2963.2 | 1.63535
303.15 K, x1 = 0.099 | 992.57 | 1.43619
303.15 K, x1 = 0.1999 | 1179.18 | 1.45352
303.15 K, x1 = 0.3001 | 1371.29 | 1.47156
303.15 K, x1 = 0.3995 | 1568.62 | 1.49038
303.15 K, x1 = 0.5006 | 1776.88 | 1.51053
303.15 K, x1 = 0.5987 | 1986.59 | 1.53124
303.15 K, x1 = 0.6993 | 2210.42 | 1.55368
303.15 K, x1 = 0.799 | 2441.56 | 1.57727
303.15 K, x1 = 0.8992 | 2684.21 | 1.60236
303.15 K, x1 = 1 | 2939.86 | 1.62926

CCCCCCCCCCO [decan-1-ol] + BrC(Br)C(Br)Br
x2 = 0
Settings | mass density, [1] [kg/m3] | refractive index, [2]
293.15 K | 829.7 | 1.43706
303.15 K | 822.85 | 1.43302

CCCCCCCO [heptan-1-ol]
Settings | mass density, [3] [kg/m3] | refractive index, [4]
293.15 K | 822.39 | 1.42397
303.15 K | 815.41 | 1.42002

CCCCCCO [hexan-1-ol] + BrC(Br)C(Br)Br
x2 = 0
Settings | mass density, [1] [kg/m3] | refractive index, [2]
293.15 K | 818.92 | 1.41826
303.15 K | 811.73 | 1.41423

BrC(Br)C(Br)Br [1,1,2,2-tetrabromoethane] + CCCCCO
Settings | mass density, [1] [kg/m3] | refractive index, [2]
293.15 K, x1 = 0.1009 | 1048.36 | 1.43257
293.15 K, x1 = 0.2014 | 1276.63 | 1.45508
293.15 K, x1 = 0.3004 | 1497.47 | 1.47732
293.15 K, x1 = 0.4003 | 1716.5 | 1.49977
293.15 K, x1 = 0.5014 | 1934.64 | 1.52252
293.15 K, x1 = 0.6001 | 2144.16 | 1.54476
293.15 K, x1 = 0.7001 | 2353.22 | 1.56734
293.15 K, x1 = 0.7998 | 2558.61 | 1.58989
293.15 K, x1 = 0.8997 | 2761.73 | 1.61255
293.15 K, x1 = 1 | 2963.2 | 1.63535
303.15 K, x1 = 0.1009 | 1038.85 | 1.42823
303.15 K, x1 = 0.2014 | 1265.1 | 1.45052
303.15 K, x1 = 0.3004 | 1484.08 | 1.47247
303.15 K, x1 = 0.4003 | 1701.36 | 1.49475
303.15 K, x1 = 0.5014 | 1917.88 | 1.51723
303.15 K, x1 = 0.6001 | 2125.93 | 1.53938
303.15 K, x1 = 0.7001 | 2333.58 | 1.5616
303.15 K, x1 = 0.7998 | 2537.64 | 1.58403
303.15 K, x1 = 0.8997 | 2739.49 | 1.60652
303.15 K, x1 = 1 | 2939.86 | 1.62926

CCCCCCCCO [octan-1-ol] + BrC(Br)C(Br)Br
x2 = 0
Settings | mass density, [1] [kg/m3] | refractive index, [2]
293.15 K | 824.99 | 1.42958
303.15 K | 818.09 | 1.42562

CCCCCO [pentan-1-ol]
Settings | mass density, [3] [kg/m3] | refractive index, [4]
293.15 K | 815.03 | 1.40995
303.15 K | 807.6 | 1.40592

CCCCCCO [hexan-1-ol]
Settings | mass density, [3] [kg/m3] | refractive index, [4]
293.15 K | 818.92 | 1.41826
303.15 K | 811.73 | 1.41423

CCCCCCCCCCO [decan-1-ol]
Settings | mass density, [3] [kg/m3] | refractive index, [4]
293.15 K | 829.7 | 1.43706
303.15 K | 822.85 | 1.43302

CCCCCO [pentan-1-ol] + BrC(Br)C(Br)Br
x2 = 0
Settings | mass density, [1] [kg/m3] | refractive index, [2]
293.15 K | 815.03 | 1.40995
303.15 K | 807.6 | 1.40592

CCCCCCCCO [octan-1-ol]
Settings | mass density, [3] [kg/m3] | refractive index, [4]
293.15 K | 824.99 | 1.42958
303.15 K | 818.09 | 1.42562
